Assay results from patent US20230263822A1, “MODULATION OF FACTOR 11 EXPRESSION” (Ionis Pharmaceuticals, Inc., priority 2008, published 2023).

Experiments:
[1] = Hematology assays in cynomolgus monkeys (Example 46); format: in vivo
Procedure: (§1) Groups, each consisting of two male and two female monkeys, were injected subcutaneously with 25 mg/kg of ISIS 416850, ISIS 449709, ISIS 445522, ISIS 449710, ISIS 449707, ISIS 449711, ISIS 449708, 416858, and ISIS 445531. Antisense oligonucleotide was administered to the monkeys at 25 mg/kg three times per week for week 1 and 25 mg/kg twice per week for weeks 2 to 8. A control group, consisting of two male and two female monkeys was injected subcutaneously with PBS according to the same dosing regimen. Body weights were taken 14 days and 7 days before the start of treatment and were then measured weekly throughout the treatment period. Blood samples were collected 14 days and 5 days before the start of treatment and subsequently several times during the dosing regimen for PT and aPTT measurements, and measurement of various hematologic factors. On day 55, the monkeys were euthanized by exsanguination while under deep anesthesia, and organs harvested for further analysis.

blood coagulation = assay: PT and aPTT assay in cynomolgus monkeys (Example 46); format: in vivo; conditions: for PT ratio (INR) / aPTT ratio relative to PBS group: platelet poor plasma, relative to PBS group; for aPTT: cynomolgus monkeys, 25 mg/kg
Procedure: as §1
PT and aPTT were measured using platelet poor plasma (PPP) from […] treated with ISIS oligonucleotides. PT and aPTT values are provided in Tables 148 and 149 and are reported as International Normalized Ratio (INR) values. INR values for PT and aPTT were determined by dividing the PT or aPTT value for each experimental group by the PT or aPTT for the PBS treated group. This ratio was then raised to the power of the International Sensitivity Index (ISI) of the tissue factor used. […] Therefore, antisense reduction of Factor 11 with these ISIS oligonucleotides is useful for inhibiting the formation of a thrombus or clot in response to an abnormal vessel wall, but not in response to tissue injury.

Substance “ISIS 416850: MOE gapmer, nucleobases 1275 to 1318 of SEQ ID NO: 1 (Table 8) (antisense TGCACAGTTTCTGGCAGGCC; MOE gapmer, wing and gap sizes not given here)” has an HCT ([1]; Day 17) of 42%, an MCH ([1]; Day 17) of 23.7 pg and an MCHC ([1]; Day 17) of 31.3 g/dL. For the same substance, the MCV ([1]; Day 17) was 76 fL, the RBC count ([1]; Day 17) was 5.6e+06 µL⁻¹ and the WBC count ([1]; Day 17) was 11000 µL⁻¹. For the same substance, the hemoglobin content ([1]; Day 17) was 13.3 g/dL, the monocytes ([1]; Day 17) was 3.2% and the neutrophils ([1]; Day 17) was 95%. The platelet count ([1]; Day 17) was 467 ×100/μL, the HCT ([1]; Day 31) was 42% and the MCH ([1]; Day 31) was 23.3 pg. It also gave an MCHC ([1]; Day 31) of 31.0 g/dL, an MCV ([1]; Day 31) of 75 fL and an RBC count ([1]; Day 31) of 5.6e+06 µL⁻¹. For the same substance, the WBC count ([1]; Day 31) was 12000 µL⁻¹, the hemoglobin content ([1]; Day 31) was 13.1 g/dL and the monocytes ([1]; Day 31) was 3.7%. The neutrophils ([1]; Day 31) was 100%, the platelet count ([1]; Day 31) was 507 ×100/μL and the HCT ([1]; Day 45) was 42%. It also gave an MCH ([1]; Day 45) of 22.7 pg, an MCHC ([1]; Day 45) of 31.0 g/dL and an MCV ([1]; Day 45) of 75 fL. It also gave an RBC count ([1]; Day 45) of 5.7e+06 µL⁻¹, a WBC count ([1]; Day 45) of 12000 µL⁻¹ and a hemoglobin content ([1]; Day 45) of 13.1 g/dL. For the same substance, the monocytes ([1]; Day 45) was 3.8%, the neutrophils ([1]; Day 45) was 85% and the platelet count ([1]; Day 45) was 453 ×100/μL. It also gave an HCT ([1]; Day 55) of 40%, an MCH ([1]; Day 55) of 22.9 pg and an MCHC ([1]; Day 55) of 30.9 g/dL. The MCV ([1]; Day 55) was 73 fL, the RBC count ([1]; Day 55) was 5.6e+06 µL⁻¹ and the WBC count ([1]; Day 55) was 10000 µL⁻¹. It also gave a hemoglobin content ([1]; Day 55) of 12.7 g/dL, a monocytes ([1]; Day 55) of 3.4% and a neutrophils ([1]; Day 55) of 108%. The platelet count ([1]; Day 55) was 396 ×100/μL, the HCT ([1]; Day-5) was 44% and the MCH ([1]; Day-5) was 23.7 pg. For the same substance, the MCHC ([1]; Day-5) was 30.7 g/dL, the MCV ([1]; Day-5) was 77 fL and the RBC count ([1]; Day-5) was 5.7e+06 µL⁻¹. For the same substance, the WBC count ([1]; Day-5) was 13000 µL⁻¹, the hemoglobin content ([1]; Day-5) was 13.5 g/dL and the monocytes ([1]; Day-5) was 2.9%. The neutrophils ([1]; Day-5) was 109%, the platelet count ([1]; Day-5) was 517 ×100/μL and the HCT ([1]; Day-14) was 41%. It also gave an MCH ([1]; Day-14) of 23.7 pg, an MCHC ([1]; Day-14) of 32.0 g/dL and an MCV ([1]; Day-14) of 74 fL. The RBC count ([1]; Day-14) was 5.5e+06 µL⁻¹, the WBC count ([1]; Day-14) was 12000 µL⁻¹ and the hemoglobin content ([1]; Day-14) was 13.0 g/dL. The monocytes ([1]; Day-14) was 1.9%, the neutrophils ([1]; Day-14) was 88% and the platelet count ([1]; Day-14) was 462 ×100/μL. The “PT ratio (INR)” value (blood coagulation; Day 10) was 0.99, the “aPTT ratio relative to PBS group” value (blood coagulation; Day 10) was 0.98 and the “PT ratio (INR)” value (blood coagulation; Day 17) was 1.00. For the same substance, the “aPTT ratio relative to PBS group” value (blood coagulation; Day 17) was 1.01, the “PT ratio (INR)” value (blood coagulation; Day 24) was 0.97 and the “aPTT ratio relative to PBS group” value (blood coagulation; Day 24) was 1.05. The “PT ratio (INR)” value (blood coagulation; Day 31) was 1.00, the “aPTT ratio relative to PBS group” value (blood coagulation; Day 31) was 1.22 and the “PT ratio (INR)” value (blood coagulation; Day 38) was 1.01. For the same substance, the “aPTT ratio relative to PBS group” value (blood coagulation; Day 38) was 1.25, the “PT ratio (INR)” value (blood coagulation; Day 45) was 1.00 and the “aPTT ratio relative to PBS group” value (blood coagulation; Day 45) was 1.34. For the same substance, the “PT ratio (INR)” value (blood coagulation; Day 52) was 1.02, the “aPTT ratio relative to PBS group” value (blood coagulation; Day 52) was 1.32 and the “PT ratio (INR)” value (blood coagulation; Day 55) was 1.07. For the same substance, the “aPTT ratio relative to PBS group” value (blood coagulation; Day 55) was 1.45, the “PT ratio (INR)” value (blood coagulation; Day −5) was 1.00 and the “aPTT ratio relative to PBS group” value (blood coagulation; Day −5) was 0.90. For the same substance, the “PT ratio (INR)” value (blood coagulation; Day −14) was 1.02, the “aPTT ratio relative to PBS group” value (blood coagulation; Day −14) was 0.99 and the “aPTT” value (blood coagulation) was “significantly prolonged”.
With “ISIS 416858: MOE gapmer, nucleobases 1275 to 1318 of SEQ ID NO: 1 (Table 8) (antisense ACGGCATTGGTGCACAGTTT; MOE gapmer, wing and gap sizes not given here)” the HCT ([1]; Day 17) was 43%, the MCH ([1]; Day 17) was 23.1 pg and the MCHC ([1]; Day 17) was 29.9 g/dL. The MCV ([1]; Day 17) was 78 fL, the RBC count ([1]; Day 17) was 5.6e+06 µL⁻¹ and the WBC count ([1]; Day 17) was 10000 µL⁻¹. For the same substance, the hemoglobin content ([1]; Day 17) was 13.0 g/dL, the monocytes ([1]; Day 17) was 4.0% and the neutrophils ([1]; Day 17) was 54%. For the same substance, the platelet count ([1]; Day 17) was 358 ×100/μL, the HCT ([1]; Day 31) was 43% and the MCH ([1]; Day 31) was 23.0 pg. The MCHC ([1]; Day 31) was 31.0 g/dL, the MCV ([1]; Day 31) was 76 fL and the RBC count ([1]; Day 31) was 5.6e+06 µL⁻¹. It also gave a WBC count ([1]; Day 31) of 9000 µL⁻¹, a hemoglobin content ([1]; Day 31) of 12.8 g/dL and a monocytes ([1]; Day 31) of 4.7%. For the same substance, the neutrophils ([1]; Day 31) was 54%, the platelet count ([1]; Day 31) was 289 ×100/μL and the HCT ([1]; Day 45) was 41%. The MCH ([1]; Day 45) was 22.2 pg, the MCHC ([1]; Day 45) was 30.3 g/dL and the MCV ([1]; Day 45) was 75 fL. For the same substance, the RBC count ([1]; Day 45) was 5.5e+06 µL⁻¹, the WBC count ([1]; Day 45) was 8000 µL⁻¹ and the hemoglobin content ([1]; Day 45) was 12.3 g/dL. The monocytes ([1]; Day 45) was 4.6%, the neutrophils ([1]; Day 45) was 61% and the platelet count ([1]; Day 45) was 287 ×100/μL. For the same substance, the HCT ([1]; Day 55) was 39%, the MCH ([1]; Day 55) was 22.8 pg and the MCHC ([1]; Day 55) was 30.4 g/dL. For the same substance, the MCV ([1]; Day 55) was 75 fL, the RBC count ([1]; Day 55) was 5.3e+06 µL⁻¹ and the WBC count ([1]; Day 55) was 9000 µL⁻¹. It also gave a hemoglobin content ([1]; Day 55) of 12.0 g/dL, a monocytes ([1]; Day 55) of 4.6% and a neutrophils ([1]; Day 55) of 73%. For the same substance, the platelet count ([1]; Day 55) was 257 ×100/μL, the HCT ([1]; Day-5) was 44% and the MCH ([1]; Day-5) was 23.5 pg. For the same substance, the MCHC ([1]; Day-5) was 29.8 g/dL, the MCV ([1]; Day-5) was 79 fL and the RBC count ([1]; Day-5) was 5.5e+06 µL⁻¹. It also gave a WBC count ([1]; Day-5) of 11000 µL⁻¹, a hemoglobin content ([1]; Day-5) of 13.0 g/dL and a monocytes ([1]; Day-5) of 2.7%. The neutrophils ([1]; Day-5) was 84%, the platelet count ([1]; Day-5) was 433 ×100/μL and the HCT ([1]; Day-14) was 41%. It also gave an MCH ([1]; Day-14) of 23.2 pg, an MCHC ([1]; Day-14) of 31.1 g/dL and an MCV ([1]; Day-14) of 75 fL. The RBC count ([1]; Day-14) was 5.5e+06 µL⁻¹, the WBC count ([1]; Day-14) was 10000 µL⁻¹ and the hemoglobin content ([1]; Day-14) was 12.8 g/dL. The monocytes ([1]; Day-14) was 2.0%, the neutrophils ([1]; Day-14) was 65% and the platelet count ([1]; Day-14) was 369 ×100/μL. For the same substance, the “PT ratio (INR)” value (blood coagulation; Day 10) was 0.96, the “aPTT ratio relative to PBS group” value (blood coagulation; Day 10) was 1.07 and the “PT ratio (INR)” value (blood coagulation; Day 17) was 0.98. The “aPTT ratio relative to PBS group” value (blood coagulation; Day 17) was 1.13, the “PT ratio (INR)” value (blood coagulation; Day 24) was 0.95 and the “aPTT ratio relative to PBS group” value (blood coagulation; Day 24) was 1.21. The “PT ratio (INR)” value (blood coagulation; Day 31) was 1.00, the “aPTT ratio relative to PBS group” value (blood coagulation; Day 31) was 1.32 and the “PT ratio (INR)” value (blood coagulation; Day 38) was 0.97. For the same substance, the “aPTT ratio relative to PBS group” value (blood coagulation; Day 38) was 1.41, the “PT ratio (INR)” value (blood coagulation; Day 45) was 1.00 and the “aPTT ratio relative to PBS group” value (blood coagulation; Day 45) was 1.49. The “PT ratio (INR)” value (blood coagulation; Day 52) was 0.99, the “aPTT ratio relative to PBS group” value (blood coagulation; Day 52) was 1.53 and the “PT ratio (INR)” value (blood coagulation; Day 55) was 1.01. For the same substance, the “aPTT ratio relative to PBS group” value (blood coagulation; Day 55) was 1.61, the “PT ratio (INR)” value (blood coagulation; Day −5) was 0.96 and the “aPTT ratio relative to PBS group” value (blood coagulation; Day −5) was 0.96. The “PT ratio (INR)” value (blood coagulation; Day −14) was 1.01, the “aPTT ratio relative to PBS group” value (blood coagulation; Day −14) was 1.03 and the “aPTT” value (blood coagulation) was “significantly prolonged”.
